The results in this text go back to patent US6281214A, “Biphenyl derivatives” (Eisai Co., Ltd, priority 1994, dated 2001).

One may read the Ki as a measure of affinity in units of concentration, obtained from inhibition or displacement.

What all share (set-up): species or system SD rats
Experiment [1] concerns the target T1, dopamine D2 receptor (Rattus norvegicus, UniProt P61169).
T1 construct: the receptor fraction prepared from the corpus striatum was molten and suspended; from tissue; host or cells: corpus striatum of SD rats (membrane fraction)
The experiment in a line: dopamine D2 receptor binding test ([3H] Spiperone Binding Test). The note with it: 1 nM [3H] Spiperone, rat corpus striatum, room temperature, 60 minutes. The gist of the method:
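Rat (SD, 6–8 weeks) corpus striatum membranes in 50 mM Krebs-Tris pH 7.4 were incubated with 1 nM [3H]spiperone at room temperature for 60 minutes, with nonspecific binding defined by excess spiperone. IC50 came from probit analysis; Ki was derived using radioligand concentration and Scatchard Kd.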

The target in experiment [2] is T2, serotonin S2 receptor (Rattus norvegicus, UniProt P14842).
T2 construct: The receptor fraction prepared from the cortex was molten and suspended; from tissue; host or cells: cerebral cortex of SD rats (membrane fraction)
T2 sequence (P14842 whole entry): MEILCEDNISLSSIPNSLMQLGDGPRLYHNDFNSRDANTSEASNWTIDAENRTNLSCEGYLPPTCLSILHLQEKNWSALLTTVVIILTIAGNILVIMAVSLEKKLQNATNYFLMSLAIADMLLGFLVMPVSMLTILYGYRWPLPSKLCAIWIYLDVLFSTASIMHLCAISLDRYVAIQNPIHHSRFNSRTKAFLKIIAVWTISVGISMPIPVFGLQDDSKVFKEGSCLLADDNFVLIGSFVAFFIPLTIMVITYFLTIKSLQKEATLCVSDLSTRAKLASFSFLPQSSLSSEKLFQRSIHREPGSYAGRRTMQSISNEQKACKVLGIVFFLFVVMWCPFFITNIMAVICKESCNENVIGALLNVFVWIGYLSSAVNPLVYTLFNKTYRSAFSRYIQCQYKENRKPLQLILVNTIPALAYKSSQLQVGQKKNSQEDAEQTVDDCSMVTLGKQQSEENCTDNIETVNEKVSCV
The experiment in a line: serotonin S2 receptor binding test ([3H] Ketanserin Binding Test). Particulars: 1 nM [3H] Ketanserin, rat cortex, 37° C., 15 minutes. The method in brief:
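Ki values came from probit IC50s corrected for radioligand concentration and Kd (Scatchard). Binding used 1 nM [3H]ketanserin with SD rat cortex membrane fractions, 15 min at 37 °C in Tris-HCl pH 7.4. Bound radioactivity was measured after GF/B filtration, with methysergide for nonspecific binding.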

Experiment [3] has as its target adrenergic α1 receptor. The experiment in a line: adrenergic α1 receptor binding test ([3H] Prazosin Binding Test). The note with it: 1 nM [3H] Prazosin, rat cortex, room temperature, 60 minutes. The method in brief:
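Rat (SD, 6-8 weeks) cerebral cortex membranes in 50 mM Tris-HCl pH 7.4 incubated with 1 nM [3H]prazosin for 60 min at room temperature; nonspecific binding defined with phentolamine. IC50 by probit method, converted to Ki using radioligand concentration and Scatchard-derived Kd.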

[4] abbreviates: read-out: Ki value, dopamine D2 receptor.

Read-outs that look alike come from different tables or passages of the source. Where only a bound is given, the exact number is not on record here.

T1 sequence (P61169 whole entry): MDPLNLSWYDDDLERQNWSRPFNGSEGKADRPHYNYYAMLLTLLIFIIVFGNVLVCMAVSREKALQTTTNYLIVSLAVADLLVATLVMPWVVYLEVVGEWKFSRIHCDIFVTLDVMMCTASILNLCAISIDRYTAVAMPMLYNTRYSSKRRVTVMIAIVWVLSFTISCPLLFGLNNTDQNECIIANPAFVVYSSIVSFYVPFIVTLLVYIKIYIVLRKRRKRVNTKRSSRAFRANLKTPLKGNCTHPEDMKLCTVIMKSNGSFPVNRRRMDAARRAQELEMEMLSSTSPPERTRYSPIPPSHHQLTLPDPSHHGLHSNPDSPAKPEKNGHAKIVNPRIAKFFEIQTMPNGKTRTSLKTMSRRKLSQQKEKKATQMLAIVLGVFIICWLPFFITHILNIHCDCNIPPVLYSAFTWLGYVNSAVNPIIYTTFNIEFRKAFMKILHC

Turning to `CCN1CCN(c2cc(C#N)c(OC)c(-c3ccccc3)c2)CC1` [Example 89, 1-Ethyl-4-(3-phenyl-4-methoxy-5-cyano)phenylpiperazine], the inhibition constant (Ki) in experiment [1] (Ki value, dopamine D2 receptor) is 0.0446 µM; in experiment [2] it was 0.31 µM; in experiment [3], more than 1 µM.
`CCN1CCN(c2cc(-c3ccc(F)cc3C)c(Cl)c(S(=O)(=O)NC3CC3)c2)CC1` [Example 146, 1-Ethyl-4-{3-[2(4-fluorotolyl)-]4-chloro-5-cyclopropaneaminosulfonyl}phenylpiperazine]: the inhibition constant (Ki) in experiment [1] (setting [4]) came to 0.00083 µM; in experiment [2], 0.0132 µM; in experiment [3], 0.349 µM.
The corresponding values for `CCCc1cc(N2CCN(CC)CC2)cc(-c2ccccc2C)c1OC` [Example 116, 1-Ethyl-4-[3-(2-tolyl)-4-methoxy-5-propyl]phenylpiperazine] are 0.00965 µM, 0.0395 µM and more than 1 µM.
With `CCN1CCN(c2cc(NS(=O)(=O)CC(F)(F)F)c(Cl)c(-c3ccccc3C)c2)CC1` [Example 136], the Ki turned out to be 0.0142 µM in experiment [1] (setting [4]), 0.089 µM in experiment [2] and 0.472 µM in experiment [3].
With `CCN1CCN(c2cc(-c3ccccc3)c(OC)c(-c3ccccc3)c2)CC1` [Example 56, 1-Ethyl-4-(3,5-diphenyl-4-methoxy)phenylpiperazine], the values for the Ki in experiment [1] (setting [4]), in experiment [2] and in experiment [3] were 0.111 µM, 0.212 µM and 0.503 µM, respectively.
As to `CCN1CCN(c2cc(C(=O)c3ccccn3)c(OC)c(-c3ccccc3)c2)CC1` [Example 109, 1-Ethyl-4-[3-phenyl-4-methoxy-5-(2-pyridylcarbonyl)]phenylpiperazine], the results for the Ki in experiment [1] (setting [4]), in experiment [2] and in experiment [3] were more than 1 µM, 0.23 µM and more than 1 µM, respectively.
Regarding `CCS(=O)(=O)c1cc(N2CCN(CCO)CC2)cc(-c2ccc(F)cc2)c1OC` [Example 195], the Ki is 0.0706 µM in experiment [1] (setting [4]), 0.00575 µM in experiment [2] and more than 1 µM in experiment [3].
As for `CCN1CCN(c2cc(NS(=O)(=O)CC)c(Cl)c(-c3ccccc3C)c2)CC1` [Example 18, 1-Ethyl-4-[3-(2-tolyl)-4-chloro-5-ethanesulfonylamino]phenylpiperazine], the Ki in experiment [1] (setting [4]) was determined as 0.00075 µM; in experiment [2] it was 0.00615 µM; in experiment [3], 0.0537 µM.
With `CCCc1cc(N2CCN(CC)CC2)cc(-c2ccc(F)cc2)c1OC` [Example 65], the inhibition constant Ki in experiment [1] (setting [4]) turned out to be 0.0066 µM; in experiment [2] it was 0.0266 µM; in experiment [3], 0.079 µM.
Consider `CCC(F)c1cc(N2CCN(CCc3ccccn3)CC2)cc(-c2ccccc2C)c1Cl` (stereo not drawn) [Example 213, 1-[2-(2-Pyridyl)ethyl]-4-[3-(2-tolyl)-4-chloro-5-(1-fluoropropyl)]phenylpiperazine], for which the Ki in experiment [1] (setting [4]) worked out at 0.0143 µM; in experiment [2], 0.0103 µM; in experiment [3] it was 0.236 µM.
For the molecule `CCN1CCN(c2cc(C(=O)Cc3ccc(F)cc3)c(OC)c(-c3ccccc3)c2)CC1` [Example 93, 1-Ethyl-4-[3-phenyl-4-methoxy-5-(4-fluorophenyl)acetyl]phenylpiperazine], the inhibition constant Ki worked out at 0.028 µM in experiment [1] (setting [4]), 0.00131 µM in experiment [2] and 0.719 µM in experiment [3].
Turning to `CCN1CCN(c2cc(-c3ccccc3)c(OC)c(S(N)(=O)=O)c2)CC1` [Example 124, 1-Ethyl-4-(3-phenyl-4-methoxy-5-aminosulfonyl)phenylpiperazine], the results for the inhibitory constant (Ki) in experiment [1] (setting [4]), in experiment [2] and in experiment [3] were 0.0992 µM, more than 1 µM and more than 1 µM, respectively.
As for `CCCC(F)c1cc(N2CCN(C)CC2)cc(-c2ccccc2Cl)c1Cl` (stereo not drawn) [Example 178, 1-Methyl-4-[3-(2-chlorophenyl)-4-chloro-5-(1-fluorobutyl)]phenylpiperazine], the values for the Ki in experiment [1] (setting [4]), in experiment [2] and in experiment [3] were 0.0073 µM, 0.0122 µM and more than 1 µM, respectively.
For `CCCS(=O)(=O)Nc1cc(N2CCN(CC)CC2)cc(-c2ccccc2CC)c1Cl` [Example 194, 1-Ethyl-4-[3-(2-ethylphenyl)-4-chloro-5-propanesulfonylamino]phenylpiperazine], the Ki in experiment [1] (setting [4]) is 0.00083 µM; in experiment [2], 0.00445 µM; in experiment [3] it was more than 1 µM.
Take `CCN1CCN(c2cc(-c3ccc(F)cc3)c(OC)c(C(C)C)c2)CC1` [Example 78, 1Ethyl-4-[3-(4-fluorophenyl)-4-methoxy-5-isopropyl]phenylpiperazine]: the inhibitory constant (Ki) in experiment [1] (setting [4]) amounted to 0.00422 µM; in experiment [2], 0.0332 µM; in experiment [3], 0.0748 µM.
As to `CCN1CCN(c2cc(-c3ccccc3C)c(Cl)c(C(F)F)c2)CC1` [Example 185, 1-Ethyl-4-[3-(2-tolyl)-4-chloro-5-difluoromethyl]phenylpiperazine], the inhibitory constant (Ki) in experiment [1] (setting [4]) is 0.00058 µM; in experiment [2], more than 0.1 µM; in experiment [3], more than 1 µM.
As for `CC[C@H](F)c1cc(N2CCN(CCO)CC2)cc(-c2ccc(F)cc2C)c1Cl` [Example 222], the Ki turned out to be 0.0065 µM in experiment [1] (setting [4]), 0.012 µM in experiment [2] and 1.04 µM in experiment [3].
Consider `CCN1CCN(c2cc(CCO)cc(-c3ccccc3)c2OC)CC1` [Example 67, 1-Ethyl-4-[2-methoxy-3-phenyl-5-(2-hydroxyethyl)]phenylpiperazine], for which the Ki in experiment [1] (setting [4]) is more than 1 µM; in experiment [2] it was more than 1 µM; in experiment [3] it was 0.687 µM.
With `CCN1CCN(c2cc(NS(=O)(=O)CCCCl)c(Cl)c(-c3ccccc3C)c2)CC1` [Example 165], the Ki in experiment [1] (setting [4]) was 0.00074 µM; in experiment [2] it was 0.0061 µM; in experiment [3], more than 1 µM.
As for `CCC(F)c1cc(N2CCN(CC)CC2)cc(-c2ccccc2C)c1Cl` (stereo not drawn) [Example 27, 1-Ethyl-4-[3-(2-tolyl)-4-chloro-5-(1-fluloropropyl)]phenylpiperazine], the Ki in experiment [1] (setting [4]) amounted to 0.0112 µM; in experiment [2] it was 0.0109 µM; in experiment [3] it was 0.455 µM.
For the molecule `CCCN1CCN(c2cc(-c3ccccc3C)c(Cl)c(C(F)CC)c2)CC1` (stereo not drawn) [Example 151, 1-Propyl-4-[3-(2-tolyl)-4-chloro-5-(1-fluoropropyl)]phenylpiperazine], the inhibitory constant (Ki) was 0.00352 µM in experiment [1] (setting [4]), 0.0277 µM in experiment [2] and more than 1 µM in experiment [3].
Take `CCN1CCN(c2cc(-c3ccccc3C)c(Cl)c(S(=O)(=O)Nc3ccccc3)c2)CC1` [Example 166, 1-Ethyl-4-[3-(2-tolyl)-4-chloro-5-phenylaminosulfony]phenylpiperazine]: the inhibition constant Ki in experiment [1] (setting [4]) was 0.00142 µM; in experiment [2], 0.00542 µM; in experiment [3], more than 1 µM.
Turning to `CCCC(F)c1cc(N2CCN(CC)CC2)cc(-c2ccccc2C)c1Cl` (stereo not drawn) [Example 49, 1-Ethyl-4-[3-(2-tolyl)-4-chloro-5-(1-fluorobutyl)]phenylpiperazine], the inhibition constant Ki in experiment [1] (setting [4]) was 0.00609 µM; in experiment [2] it was 0.0201 µM; in experiment [3], more than 1 µM.
Take `CCN1CCN(c2cc(CC(C)O)c(OC)c(-c3ccccc3)c2)CC1` (stereo not drawn) [Example 75, 1-Ethyl-4-[3-phenyl-4-methoxy-5-(2-hydroxypropyl)]phenylpiperazine]: the figures for the Ki in experiment [1] (setting [4]), in experiment [2] and in experiment [3] were more than 1 µM, 0.486 µM and more than 1 µM, respectively.
Consider `CCC(F)c1cc(N2CCN(CC)CC2)cc(-c2ccc(F)cc2Cl)c1Cl` (stereo not drawn) [Example 156], for which the values for the inhibition constant (Ki) in experiment [1] (setting [4]), in experiment [2] and in experiment [3] were 0.00139 µM, 0.029 µM and 0.513 µM, respectively.
For `CCC(F)c1cc(N2CCN(CC)CC2)cc(-c2ccccc2)c1OC` (stereo not drawn) [Example 88, 1-Ethyl-4-[3-phenyl-4-methoxy-5-(1-fluoropropyl)]phenylpiperazine], the results for the inhibition constant Ki in experiment [1] (setting [4]), in experiment [2] and in experiment [3] were 0.00735 µM, 0.00833 µM and 0.493 µM, respectively.
In the case of `CCCCS(=O)(=O)Nc1cc(N2CCN(CC)CC2)cc(-c2ccccc2Cl)c1Cl` [Example 33, 1-Ethyl-4-[3-(2-chlorophenyl)-4-chloro-5-butanesulfonylamino]phenylpiperazine], the Ki in experiment [1] (setting [4]) was 0.00202 µM; in experiment [2], 0.00646 µM; in experiment [3], 0.0869 µM.
On to `CCCc1cc(N2CCN(CC)CC2)cc(-c2ccc(C(F)(F)F)cc2)c1OC` [Example 85, 1-Ethyl-4-[3-(4-trifluoromethylphenyl)-4-methoxy-5-propyl]phenylpiperazine], for which the Ki in experiment [1] (setting [4]), in experiment [2] and in experiment [3] was more than 1 µM in each case.
In the case of `CCC(F)c1cc(N2CCN(CC)CC2)cc(-c2ccccc2)c1Cl` (stereo not drawn) [Example 127, 1-Ethyl-4-[3-phenyl-4-chloro-5-(1-fluoropropyl)]phenylpiperazine], the inhibitory constant (Ki) in experiment [1] (setting [4]) came out at 0.00104 µM; in experiment [2] it was 0.0114 µM; in experiment [3], 0.0659 µM.
Turning to `CCCS(=O)(=O)Nc1cc(N2CCN(C)CC2)cc(-c2ccccc2C)c1Cl` [Example 29, 1-Methyl-4-[3-(2-tolyl)-4-chloro-5-propanesulfonylamino]phenylpiperazine], the Ki in experiment [1] (setting [4]) is 0.00119 µM; in experiment [2] it was 0.00486 µM; in experiment [3], 0.0501 µM.
As for `CCN1CCN(c2cc(-c3ccccc3)c(OC)c([S+](C)[O-])c2)CC1` (stereo not drawn) [Example 104, 1-Ethyl-4-(3-phenyl-4-methoxy-5-methanesulfinyl)phenylpiperazine], the inhibition constant Ki is 0.0701 µM in experiment [1] (setting [4]), 0.0245 µM in experiment [2] and more than 1 µM in experiment [3].
